Results reported in ChEMBL document CHEMBL1130353, “Conformational studies of paclitaxel analogs modified at the C-2' position in hydrophobic and hydrophilic solvent systems” (J Med Chem, 1997).

Assays:
Type in all cases: functional, cell-based
EMT6 = assay: Inhibitory activity of compound against murine mammary adenocarcinoma (EMT-6) cell proliferation; conditions: Mus musculus
J774 = assay: Inhibitory activity of compound against murine macrophage-like (J774.2) cell proliferation; conditions: Mus musculus
OV-1063 = assay: Inhibitory activity of compound against human ovarian carcinoma (OV-1063) Cell proliferation

CC(=O)O[C@H]1C(=O)[C@@]2(C)[C@H]([C@H](OC(=O)c3ccccc3)[C@]3(O)C[C@H](OC(=O)[C@H](O)[C@@H](NC(=O)c4ccccc4)c4ccccc4)C(C)=C1C3(C)C)[C@]1(OC(C)=O)CO[C@@H]1C[C@@H]2O [PACLITAXEL]
IC50 (EMT6): 9 nM | IC50 (J774): 15 nM | IC50 (OV-1063): 15 nM

CO[C@@H](C(=O)O[C@H]1C[C@@]2(O)[C@@H](OC(=O)c3ccccc3)C3[C@]4(OC(C)=O)COC4C[C@H](O)[C@@]3(C)C(=O)[C@H](OC(C)=O)C(=C1C)C2(C)C)[C@@H](NC(=O)c1ccccc1)c1ccccc1 (some centres undefined)
IC50 (EMT6): 270 nM | IC50 (J774): 470 nM | IC50 (OV-1063): 270 nM

CC(=O)O[C@H]1C(=O)[C@@]2(C)C([C@H](OC(=O)c3ccccc3)[C@]3(O)C[C@H](OC(=O)C[C@@H](NC(=O)c4ccccc4)c4ccccc4)C(C)=C1C3(C)C)[C@]1(OC(C)=O)COC1C[C@@H]2O (some centres undefined)
IC50 (EMT6): 300 nM | IC50 (J774): 400 nM | IC50 (OV-1063): 450 nM
